Measured values: US11427548B2 (Arvinas Operations, Inc., priority 2015, dated 2022)
Like-named read-outs stand apart in the source and are kept apart here.

Columns and labels:
[1] = biological target: T1, Androgen Receptor (Homo sapiens, UniProt P10275); assay: Androgen Receptor ELISA assay (PathScan AR ELISA) in VCaP cells: AR degradation, Dmax and DC50; format: cell-based; details: for Dmax: VCaP, read-out: VCaP Dmax (%); for DC50: read-out: VCaP DC50
T1 construct: endogenous in cells; host or cells: VCaP cells
T1 sequence (P10275 1-920): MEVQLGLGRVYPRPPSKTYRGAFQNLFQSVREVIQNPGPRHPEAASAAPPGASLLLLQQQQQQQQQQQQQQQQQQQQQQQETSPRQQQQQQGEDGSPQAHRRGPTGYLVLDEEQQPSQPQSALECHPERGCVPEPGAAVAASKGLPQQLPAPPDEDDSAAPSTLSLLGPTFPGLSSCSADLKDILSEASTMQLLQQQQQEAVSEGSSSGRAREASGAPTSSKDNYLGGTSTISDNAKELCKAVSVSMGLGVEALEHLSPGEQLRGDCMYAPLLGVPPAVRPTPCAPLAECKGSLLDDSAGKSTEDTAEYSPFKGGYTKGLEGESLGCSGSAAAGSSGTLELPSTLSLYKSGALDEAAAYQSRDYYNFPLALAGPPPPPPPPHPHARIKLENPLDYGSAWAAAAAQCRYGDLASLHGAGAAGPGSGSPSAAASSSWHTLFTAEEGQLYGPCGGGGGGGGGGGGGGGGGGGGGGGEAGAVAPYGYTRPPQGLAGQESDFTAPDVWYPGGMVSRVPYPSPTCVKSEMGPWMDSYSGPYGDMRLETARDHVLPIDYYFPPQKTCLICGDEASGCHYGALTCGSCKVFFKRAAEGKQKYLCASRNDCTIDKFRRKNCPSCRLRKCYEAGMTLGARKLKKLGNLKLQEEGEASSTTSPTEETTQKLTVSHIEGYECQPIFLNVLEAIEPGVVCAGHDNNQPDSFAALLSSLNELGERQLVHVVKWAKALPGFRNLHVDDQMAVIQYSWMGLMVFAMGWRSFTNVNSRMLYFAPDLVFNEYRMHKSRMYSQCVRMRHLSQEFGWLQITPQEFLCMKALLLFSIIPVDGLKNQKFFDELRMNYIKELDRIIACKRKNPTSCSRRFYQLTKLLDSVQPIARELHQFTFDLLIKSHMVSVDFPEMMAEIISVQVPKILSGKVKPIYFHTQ
Procedure, shortened: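 VCaP cells, 30,000/well, grown ≥3 days in phenol red-free RPMI with 5% charcoal-stripped FBS; compound added in 0.1% DMSO with 0.1 nM R1881, 7 half-log doses, 24 h. Lysate AR quantified by PathScan sandwich ELISA, HRP/TMB read at 450 nm, giving DC50 and Dmax.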

[2] = biological target: T2, Androgen Receptor (Homo sapiens, UniProt P10275+P40337, T878A); assay: Androgen Receptor ELISA assay (PathScan AR ELISA) in LNCaP cells: AR degradation, Dmax and DC50; format: cell-based
T2 construct: Compounds have been evaluated in this assay in LNCaP and/or VCaP cells utilizing similar protocols; endogenous in cells; host or cells: LNCaP cells
T2 sequence (P10275 whole entry T878A): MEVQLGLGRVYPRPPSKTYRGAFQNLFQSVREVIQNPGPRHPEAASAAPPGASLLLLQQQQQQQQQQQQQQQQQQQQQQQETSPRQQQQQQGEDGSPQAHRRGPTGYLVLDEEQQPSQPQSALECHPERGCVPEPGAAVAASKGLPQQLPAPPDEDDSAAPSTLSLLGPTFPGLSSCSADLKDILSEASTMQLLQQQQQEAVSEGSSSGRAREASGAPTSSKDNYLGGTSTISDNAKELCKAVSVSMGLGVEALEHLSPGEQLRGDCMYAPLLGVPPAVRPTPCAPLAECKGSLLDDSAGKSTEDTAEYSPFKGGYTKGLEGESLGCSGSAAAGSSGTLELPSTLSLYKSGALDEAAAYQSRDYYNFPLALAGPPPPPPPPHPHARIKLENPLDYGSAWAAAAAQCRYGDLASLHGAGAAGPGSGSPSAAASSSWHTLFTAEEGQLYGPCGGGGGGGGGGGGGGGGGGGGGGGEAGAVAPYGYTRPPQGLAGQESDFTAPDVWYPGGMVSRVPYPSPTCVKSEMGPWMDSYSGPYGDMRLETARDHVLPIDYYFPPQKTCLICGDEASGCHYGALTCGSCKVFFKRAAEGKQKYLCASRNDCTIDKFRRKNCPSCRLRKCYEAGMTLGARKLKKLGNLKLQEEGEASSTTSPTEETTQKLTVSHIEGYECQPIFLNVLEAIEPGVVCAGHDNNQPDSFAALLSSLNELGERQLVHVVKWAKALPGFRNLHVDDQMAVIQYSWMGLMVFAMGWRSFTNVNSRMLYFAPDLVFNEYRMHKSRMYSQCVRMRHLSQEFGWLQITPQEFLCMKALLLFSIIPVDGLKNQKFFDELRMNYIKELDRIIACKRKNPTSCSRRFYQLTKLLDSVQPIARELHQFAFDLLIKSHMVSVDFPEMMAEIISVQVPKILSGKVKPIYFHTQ
T2 sequence (P40337 whole entry): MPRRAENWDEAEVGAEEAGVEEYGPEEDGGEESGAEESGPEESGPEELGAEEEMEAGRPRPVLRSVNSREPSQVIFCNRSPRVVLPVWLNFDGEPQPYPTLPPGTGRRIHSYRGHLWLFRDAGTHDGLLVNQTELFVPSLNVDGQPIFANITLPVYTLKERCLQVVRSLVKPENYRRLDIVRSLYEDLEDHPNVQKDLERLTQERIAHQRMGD
T2 sequence (Q15369 whole entry partner): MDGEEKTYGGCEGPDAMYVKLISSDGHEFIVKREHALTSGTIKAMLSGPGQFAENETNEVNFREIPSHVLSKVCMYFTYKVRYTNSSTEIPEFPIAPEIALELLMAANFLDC
T2 sequence (Q15370 whole entry partner): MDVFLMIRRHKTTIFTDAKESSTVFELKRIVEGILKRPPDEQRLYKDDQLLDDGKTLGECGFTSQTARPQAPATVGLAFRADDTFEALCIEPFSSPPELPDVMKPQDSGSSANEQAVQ

[3] = PROTAC subcutaneous pharmacokinetics in CD-1 mice; format: in vivo; details: male, plasma, CD-1 Mouse, 10 mg/kg SC dose; for AUC(0-t): read-out: Plasma Exposure AUC0-24; for Cmax: read-out: Plasma Exposure Cmax
Experimental: (§1) 9. PROTAC Prodrug Oral Pharmacokinetics and PROTAC Subcutaneous Phamacokinetics.
(§2) Representative Pharmacokinetic Procedure
(§3) Male CD-1 mice (6-8 weeks old, weighing 20-30 g, 3 per study) with free access to food and water were administered with the test article at 10 mg/kg either by oral gavage or sub-cutaneous injection in the formulation specified in tables 20 and 21, at 10 mL/kg.
(§4) Approximately 0.04 mL blood samples were collected from the dorsal metatarsal vein serially at 0.25, 0.5, 1, 2, 4, 8 and 24 h timepoints; heparin was used as the anticoagulant. The samples were centrifuged at 4000 g for 5 min at 4° C. then stored at −75° C. prior to analysis.
(§5) The plasma samples were analysed via an LC/MS/MS method quantitating for unchanged, administered test article, and/or a derivative species as appropriate. WinNonlin (Phoenix™) was used for the pharmacokinetic calculations and modeling, to generate parameters such as Cmax and AUC.

[4] = system: VCaP cells; assay: VCaP cell proliferation assay (Cell Titer Glo), GI50; format: cell-based; details: for GI50: Homo sapiens, VCaP cells, 0.1 nM R1881, Table 37, read-out: GI50, Inhibition of VCaP Proliferation
Experimental: 2. VCaP Cell Proliferation Assay.
VCaP cells are plated 7,500/well 200 μL/well in VCaP assay medium [Phenol red free RPMI (Gibco Cat #11835-030); 5% Charcoal Stripped (Dextran treated) FBS (Omega Scientific, Cat #FB-04); Pen/Strep Life Technologies (Gibco Cat #: 10378-016); 0.1 nM R1881 (Sigma, Cat #R0908) is added upon the start of the assay, not during initial plating of the cells).
The assay was performed as follows: the cells are grown for a minimum of 3 days to deplete androgens; dosing of PROTACs and R1881 is performed as for AR ELISA; the baseline reading of Cell Titer Glo can be performed on day of dosing.
VCaP cells with 0.1 nM R1881 will double once in 4 days. Gently draw off 110 μL of media so as not to disturb the adherent cells; add 110 μL of CTG; incubate with slow shaking for 20 minutes; and read luminescence on a plate reader.

[5] = PROTAC prodrug oral pharmacokinetics in CD-1 mice; format: in vivo; details: male, mouse, plasma, 10 mg/kg, 10 mpk PO; for AUC: read-out: Plasma Exposure Prodrug AUC; for Cmax: read-out: Plasma Exposure Prodrug Cmax
Experimental: as §1, §2, §3, §4, §5

[6] = system: VCaP xenograft; assay: Tumor growth inhibition in VCaP xenograft model; format: in vivo; details: VCaP cells s.c. in castrated CB17 scid mice; enzalutamide PO, QD, 30 mpk; Example 163 IP, QD, 30, 10 and 3 mpk
Excerpt: FIG. 6. Tumor growth inhibition in VCaP xenograft model. VCaP cells were implanted into CB17 scid mice subcutaneously. Once the tumors were palpable, the mice were castrated, leading to temporary tumor stasis.
7. Tumor Growth Inhibition in VCaP Xenograft Model.
VCaP cells were implanted into CB17 scid mice subcutaneously. Once the tumors were palpable, the mice were castrated, leading to temporary tumor stasis.

[7] = highest percentage of Androgen Receptor degradation observed, VCaP cells (Table 32)
[8] = concentration that caused 50% Androgen Receptor degradation, VCaP cells (Table 32)
[9] = vehicle ESP-4, prodrug measured
[10] = vehicle ESD-4, prodrug measured

SMILES | Dmax [1, 7] [%] | GI50 [4] [nM] | AUC [5, 9] [ng·h/mL] | Cmax [5, 9] [ng/mL] | DC50 ([1]; VCaP cells, Table 35) [nM] | Dmax ([1]; VCaP cells, Table 35) [%] | also measured
Cc1ncsc1-c1ccc(CNC(=O)[C@@H]2C[C@@H](O)CN2C(=O)[C@@H](NC(=O)COCCCOCCN2CCC(c3ccc(N4C(=S)N(c5ccc(C#N)c(C(F)(F)F)c5)C(=O)C4(C)C)cc3)CC2)C(C)(C)C)cc1 [Example 80, (2S,4R)-1-((S)-2-(2-(3-(2-(4-(4-(3-(4-cyano-3-(trifluoromethyl)phenyl)-5,5-dimethyl-4-oxo-2-thioxoimidazolidin-1-yl)phenyl)piperidin-1-yl)ethoxy)propoxy)acetamido)-3,3-dimethylbutanoyl)-4-hydroxy-N-(4-(4-methylthiazol-5-yl)benzyl)pyrrolidine-2-carboxamide] |  |  |  |  |  |  | Dmax [1]: 26 to 50%; DC50 ([2]; concentration that caused 50% Androgen Receptor degradation): > 501 nM; Dmax ([2]; highest percentage of Androgen Receptor degradation observed): 51 to 70%; AUC(0-t) ([3]; vehicle ELP-1): 2530 ng·h/mL; Cmax ([3]; vehicle ELP-1): 180 ng/mL
CC(C)(C)[C@H](NC(=O)COCCCCCOc1ccc(C(=O)N[C@H]2C(C)(C)[C@H](Oc3ccc(C#N)c(Cl)c3)C2(C)C)cc1)C(=O)N1C[C@H](O)C[C@H]1C(=O)NCc1ccc(-c2cncs2)cc1 [Example 150, (2S,4R)-1-[(2S)-3,3-dimethyl-2-(2-{[5-(4-{[trans-3-(3-chloro-4-cyanophenoxy)-2,2,4,4-tetramethylcyclobutyl]carbamoyl}phen-oxy)pentyl]oxy}acetamido)butanoyl]-4-hydroxy-N-{[4-(1,3-thiazol-5-yl)phenyl]methyl}pyrrolidine-2-carboxamide] | > 71 | ≤ 50 |  |  |  |  | DC50 [1, 8]: < 50 nM; AUC(0-t) ([3]; vehicle ESD-1): 40200 ng·h/mL; Cmax ([3]; vehicle ESD-1): 2750 ng/mL
Cc1ncsc1-c1ccc([C@H](C)NC(=O)[C@@H]2C[C@@H](O)CN2C(=O)[C@@H](NC(=O)COCCCCCNc2ccc(C(=O)N[C@H]3C(C)(C)[C@H](Oc4ccc(C#N)c(Cl)c4)C3(C)C)cc2)C(C)(C)C)cc1 [Example 174, (2S,4R)-1-[(2S)-3,3-dimethyl-2-[2-({5-[(4-{[trans-3-(3-chloro-4-cyanophenoxy)-2,2,4,4-tetramethylcyclobutyl]carbamoyl}phenyl)amino]pentyl}oxy)acetamido]butanoyl]-4-hydroxy-N-[(1S)-1-[4-(4-methyl-1,3-thiazol-5-yl)phenyl]ethyl]pyrrolidine-2-carboxamide] | > 71 | ≤ 50 |  |  |  |  | DC50 [1, 8]: < 50 nM; AUC(0-t) ([3]; vehicle ESD-1): 35100 ng·h/mL; Cmax ([3]; vehicle ESD-1): 1900 ng/mL
Cc1ncsc1-c1ccc(CNC(=O)[C@@H]2C[C@@H](O)CN2C(=O)[C@@H](NC(=O)COCCOc2ccc(-c3ccc(C(=O)N[C@H]4C(C)(C)[C@H](Oc5ccc(C#N)c(Cl)c5)C4(C)C)cc3)cc2)C(C)(C)C)cc1 [Example 182, (2S,4R)-1-[(2S)-3,3-dimethyl-2-(2-{2-[4-(4-{[trans-3-(3-chloro-4-cyanophenoxy)-2,2,4,4-tetramethylcyclobutyl]carbamoyl}phenyl)phenoxy]ethoxy}acetamido)butanoyl]-4-hydroxy-N-{[4-(4-methyl-1,3-thiazol-5-yl)phenyl]methyl}pyrrolidine-2-carboxamide] | > 71 | ≤ 50 |  |  |  |  | AUC(0-t) ([3]; vehicle ELP-1): 29200 ng·h/mL; Cmax ([3]; vehicle ELP-1): 1530 ng/mL
Cc1ncsc1-c1ccc([C@H](C)NC(=O)[C@@H]2C[C@@H](OC(=O)[C@@H](N)C(C)C)CN2C(=O)[C@@H](NC(=O)COCCCCCNc2ccc(C(=O)N[C@H]3C(C)(C)[C@H](Oc4ccc(C#N)c(Cl)c4)C3(C)C)cc2)C(C)(C)C)cc1 [Example 463] |  |  | 49 | 12 |  |  | 
Cc1ncsc1-c1ccc([C@H](C)NC(=O)[C@@H]2C[C@@H](O)CN2C(=O)[C@@H](NC(=O)COCCCCCNc2ccc(C(=O)N[C@H]3C(C)(C)[C@H](Oc4ccc(C#N)c(C(F)(F)F)n4)C3(C)C)cc2)C(C)(C)C)cc1 [Example 464] |  |  | 118 | 48 | > 501 | > 71 | 
CC(=O)O[C@@H]1C[C@@H](C(=O)N[C@@H](C)c2ccc(-c3scnc3C)cc2)N(C(=O)[C@@H](NC(=O)COCCCCCNc2ccc(C(=O)N[C@H]3C(C)(C)[C@H](Oc4ccc(C#N)c(Cl)c4)C3(C)C)cc2)C(C)(C)C)C1 [Example 469] |  |  |  |  | < 50 | > 71 | AUC [5, 10]: 353 ng·h/mL; Cmax [5, 10]: 181 ng/mL
Cc1ncsc1-c1ccc([C@H](CN(C)C)NC(=O)[C@@H]2C[C@@H](O)CN2C(=O)[C@@H](NC(=O)COCCCCCOc2ccc(C(=O)N[C@H]3C(C)(C)[C@H](Oc4ccc(C#N)c(Cl)c4)C3(C)C)cc2)C(C)(C)C)cc1 [Example 470] |  |  | 469 | 346 | < 50 | > 71 | 
CNC(=O)c1ccc(N2C(=S)N(c3ccc(C#N)c(C(F)(F)F)c3)C(=O)C2(C)C)cc1F [enzalutamide, reference compound] |  |  |  |  |  |  | anti-proliferative activity ([4]; LNCap and VCaP cell systems, increasing concentrations of AR agonist R1881 and cells containing the AR F876L mutation): inactive; Tumor growth inhibition [6]: Tumor growth inhibition was observed
